Test: Assay (I): Determination of Solubility (96-well plate, pH 3.0-11.0, organic solvent 0-70% w/w, UV absorption at 280 nm)
Assay type: physicochemical
Conditions: Method 1
Protocol: Assay (I): Determination of Solubility
96-Well Plate Preparation
96-well plates containing target peptide in a solid form were prepared in one of two ways:
Method 1 (evaporation): Addition of 100 μl stock solution of said peptide at a concentration of 4-6 mg/ml to each well of a 96-well half area plate (150 μl well size). Subsequently the solvent was evaporated by applying a vacuum until the solvent was completely removed.
Method 2 (precipitation): Addition of a certain volume of a stock solution of said peptide containing to each well of a 96-well half area plate followed by the addition of a certain volume of concentrated phosphoric acid to obtain a pH of 4.6 followed by addition of a certain volume of ethanol resulting in a final ethanol concentration of 20% v/v. Subsequently the plate was stored at 4° C. for 1 h and then centrifuged at 4,000 rpm for 20 min. Finally the supernatant was removed. The concentration of the stock solution was chosen in a way that the final amount of peptide after supernatant removal was >0.4 mg per well.
In both cases the stock solution was prepared by adding de-ionized water to a certain amount of powder of said peptide followed by a stepwise addition of small amounts of a concentrated sodium hydroxide solution until said peptide was completely in solution.
To determine solubility of a target peptide at different pH and organic solvent concentrations, two different buffer systems were used in independent experiments to cover the whole range from pH 3.0 to pH 11.0. Buffer system 1 covers pH 3.0-7.5 and buffer system 2 covers pH 7.5-11.0. For each buffer system 96 different solvent compositions were premixed in the following way: • 1. A low pH buffer (adjusted to either pH 3.0 or pH 7.5) and a high pH buffer (adjusted to either pH 7.5 or pH 11.0) were mixed at 8 different ratios to obtain values between pH 3.0 and pH 7.5 or pH 7.5 and pH 11.0, respectively. The total volume after mixing was 300 μl. • 2. 12 different amounts of organic solvent were then added to these buffers to obtain organic solvent (e.g. ethanol) concentrations between 0 and 70% w/w. • 3. Water was then added to obtain a total weight of 1.0 g of solvent in each well.
After preparing the 96 different solvent systems, 100 μl of each system was transferred to the 96-well plate containing the solid form of the target peptide (prepared as described in the section “96-well plate preparation”). The plate was then stored at a given temperature (between 5° C. and 70° C.) for a given time on a rotating shaker set to 400 rpm. At regular time intervals the plate was centrifuged (4,000 rpm for 10 min) and a 10 μl sample was taken from each well. The samples were then analysed by UV absorption at 280 nm for peptide quantification. Peptide concentration results are given as UV absorption at 280 nm of the sample subtracted UV absorption at 280 nm of a well comprising 10 μl water.
The buffers used were as follows: • Buffer system 1 (for the pH range from pH 3.0-7.5)
• Buffer system 2 (for the pH ranae from pH 7.5-11.0)
Solubility of liraglutide was determined using Assay (I) described herein. Liraglutide was prepared using Method 1 (evaporation) or Method 2 (precipitation) as described in subsection “96-well plate preparation”.

CCCCCCCCCCCCCCCC(=O)N[C@@H](CCC(=O)NCCCC[C@H](NC(=O)[C@H](C)NC(=O)[C@H](C)NC(=O)[C@H](CCC(N)=O)NC(=O)CNC(=O)[C@H](CCC(=O)O)NC(=O)[C@H](CC(C)C)NC(=O)[C@H](Cc1ccc(O)cc1)NC(=O)[C@H](CO)NC(=O)[C@H](CO)NC(=O)[C@@H](NC(=O)[C@H](CC(=O)O)NC(=O)[C@H](CO)NC(=O)[C@@H](NC(=O)[C@H](Cc1ccccc1)NC(=O)[C@@H](NC(=O)CNC(=O)[C@H](CCC(=O)O)NC(=O)[C@H](C)NC(=O)[C@@H](N)Cc1cnc[nH]1)[C@@H](C)O)[C@@H](C)O)C(C)C)C(=O)N[C@@H](CCC(=O)O)C(=O)N[C@@H](Cc1ccccc1)C(=O)N[C@H](C(=O)N[C@@H](C)C(=O)N[C@@H](Cc1c[nH]c2ccccc12)C(=O)N[C@@H](CC(C)C)C(=O)N[C@H](C(=O)N[C@@H](CCCNC(=N)N)C(=O)NCC(=O)N[C@@H](CCCNC(=N)N)C(=O)NCC(=O)O)C(C)C)[C@@H](C)CC)C(=O)O [liraglutide, Arg34,Lys26-(N-epsilon-(gamma-L-glutamyl(N-alfa-hexadecanoyl)))-GLP-1(7-37)]
Peptide concentration after 5 min (MeCN 19.1% w/w, pH 8.5, 5° C.): 1.2 mg/mL | Peptide concentration after 180 min (MeCN 19.1% w/w, pH 8.5, 5° C.): 2.5 mg/mL | Peptide concentration after 24 h (MeCN 19.1% w/w, pH 8.5, 5° C.): >4.0 mg/mL | Peptide concentration after 5 min (MeCN 19.1% w/w, pH 9.0, 5° C.): 0.9 mg/mL | Peptide concentration after 180 min (MeCN 19.1% w/w, pH 9.0, 5° C.): 2.3 mg/mL | Peptide concentration after 24 h (MeCN 19.1% w/w, pH 9.0, 5° C.): >4.0 mg/mL | Peptide concentration after 5 min (MeCN 19.1% w/w, pH 9.5, 5° C.): 1.1 mg/mL | Peptide concentration after 180 min (MeCN 19.1% w/w, pH 9.5, 5° C.): 3.3 mg/mL | Peptide concentration after 24 h (MeCN 19.1% w/w, pH 9.5, 5° C.): >4.0 mg/mL | Peptide concentration after 5 min (MeCN 19.1% w/w, pH 10.0, 5° C.): 1.4 mg/mL | Peptide concentration after 180 min (MeCN 19.1% w/w, pH 10.0, 5° C.): 3.8 mg/mL | Peptide concentration after 24 h (MeCN 19.1% w/w, pH 10.0, 5° C.): >4.0 mg/mL | Peptide concentration after 5 min (MeCN 19.1% w/w, pH 10.5, 5° C.): 1.4 mg/mL | Peptide concentration after 180 min (MeCN 19.1% w/w, pH 10.5, 5° C.): >4.0 mg/mL | Peptide concentration after 24 h (MeCN 19.1% w/w, pH 10.5, 5° C.): >4.0 mg/mL | Peptide concentration after 5 min (MeCN 19.1% w/w, pH 11.0, 5° C.): 1.0 mg/mL | Peptide concentration after 180 min (MeCN 19.1% w/w, pH 11.0, 5° C.): 2.6 mg/mL | Peptide concentration after 24 h (MeCN 19.1% w/w, pH 11.0, 5° C.): >4.0 mg/mL | Peptide concentration after 5 min (MeCN 25.5% w/w, pH 8.0, 5° C.): 1.1 mg/mL | Peptide concentration after 180 min (MeCN 25.5% w/w, pH 8.0, 5° C.): 3.2 mg/mL | Peptide concentration after 24 h (MeCN 25.5% w/w, pH 8.0, 5° C.): >4.0 mg/mL | Peptide concentration after 5 min (MeCN 25.5% w/w, pH 8.5, 5° C.): 1.4 mg/mL | Peptide concentration after 180 min (MeCN 25.5% w/w, pH 8.5, 5° C.): 3.5 mg/mL | Peptide concentration after 24 h (MeCN 25.5% w/w, pH 8.5, 5° C.): >4.0 mg/mL | Peptide concentration after 5 min (MeCN 25.5% w/w, pH 9.0, 5° C.): 0.5 mg/mL | Peptide concentration after 180 min (MeCN 25.5% w/w, pH 9.0, 5° C.): >4.0 mg/mL | Peptide concentration after 24 h (MeCN 25.5% w/w, pH 9.0, 5° C.): >4.0 mg/mL | Peptide concentration after 5 min (MeCN 25.5% w/w, pH 9.5, 5° C.): 1.2 mg/mL | Peptide concentration after 180 min (MeCN 25.5% w/w, pH 9.5, 5° C.): >4.0 mg/mL | Peptide concentration after 24 h (MeCN 25.5% w/w, pH 9.5, 5° C.): >4.0 mg/mL | Peptide concentration after 5 min (MeCN 25.5% w/w, pH 10.0, 5° C.): 1.4 mg/mL | Peptide concentration after 180 min (MeCN 25.5% w/w, pH 10.0, 5° C.): 3.4 mg/mL | Peptide concentration after 24 h (MeCN 25.5% w/w, pH 10.0, 5° C.): >4.0 mg/mL | Peptide concentration after 5 min (MeCN 25.5% w/w, pH 10.5, 5° C.): 1.5 mg/mL | Peptide concentration after 180 min (MeCN 25.5% w/w, pH 10.5, 5° C.): 3.8 mg/mL | Peptide concentration after 24 h (MeCN 25.5% w/w, pH 10.5, 5° C.): >4.0 mg/mL | Peptide concentration after 5 min (MeCN 25.5% w/w, pH 11.0, 5° C.): 1.0 mg/mL | Peptide concentration after 180 min (MeCN 25.5% w/w, pH 11.0, 5° C.): 3.1 mg/mL | Peptide concentration after 24 h (MeCN 25.5% w/w, pH 11.0, 5° C.): >4.0 mg/mL | Peptide concentration after 5 min (MeCN 31.8% w/w, pH 8.0, 5° C.): 0.9 mg/mL | Peptide concentration after 180 min (MeCN 31.8% w/w, pH 8.0, 5° C.): 2.7 mg/mL | Peptide concentration after 24 h (MeCN 31.8% w/w, pH 8.0, 5° C.): >4.0 mg/mL | Peptide concentration after 5 min (MeCN 31.8% w/w, pH 8.5, 5° C.): 2.1 mg/mL | Peptide concentration after 180 min (MeCN 31.8% w/w, pH 8.5, 5° C.): 3.6 mg/mL | Peptide concentration after 24 h (MeCN 31.8% w/w, pH 8.5, 5° C.): >4.0 mg/mL | Peptide concentration after 5 min (MeCN 31.8% w/w, pH 9.0, 5° C.): 0.8 mg/mL | Peptide concentration after 180 min (MeCN 31.8% w/w, pH 9.0, 5° C.): 2.7 mg/mL | Peptide concentration after 24 h (MeCN 31.8% w/w, pH 9.0, 5° C.): >4.0 mg/mL | Peptide concentration after 5 min (MeCN 31.8% w/w, pH 9.5, 5° C.): 0.9 mg/mL | Peptide concentration after 180 min (MeCN 31.8% w/w, pH 9.5, 5° C.): 3.3 mg/mL | Peptide concentration after 24 h (MeCN 31.8% w/w, pH 9.5, 5° C.): >4.0 mg/mL

Reference: patent US20210261642A1, “SOLUBILITY OF GLP-1 PEPTIDE” (Novo Nordisk A/S, priority 2017, published 2021)
